Assay results published in patent US7371766B2, “Curcumin analogs with anti-tumor and anti-angiogenic properties” (Emory University, priority 1999, dated 2008).
Like-named read-outs stand apart in the source and are kept apart here.

Legend:
[1] = system: Sixty human tumor cell lines; conditions: NCI Anti-Tumor Screen, several cell types
RPMI-8226 = assay: cells; conditions: Homo sapiens, RPMI-8226, 48 h, read-out: Median Growth Inhibitory Concentration (GI50)
SR = assay: cells; conditions: Homo sapiens, 48 h
NCI-H226 = assay: cells; conditions: Homo sapiens, NCI-H226, 48 h
NCI-H23 = assay: cells; conditions: Homo sapiens, NCI-H23, 48 h
HCC-2998 = assay: cells; conditions: Homo sapiens, HCC 2998, 48 h
KM12 = assay: cells; conditions: Homo sapiens, KM12, 48 h
SF-268 = assay: cells; conditions: Homo sapiens, SF-268, 48 h
SF-539 = assay: cells; conditions: Homo sapiens, SF-539, 48 h
SNB-19 = assay: cells; conditions: Homo sapiens, SNB-19, 48 h
SNB-75 = assay: cells; conditions: Homo sapiens, SNB-75, 48 h
MALME-3M = assay: cells; conditions: Homo sapiens, 48 h
SK-MEL-2 = assay: cells; conditions: Homo sapiens, SK-MEL-2, 48 h
SK-MEL-28 = assay: cells; conditions: Homo sapiens, SK-MEL-28, 48 h
UACC-257 = assay: cells; conditions: Homo sapiens, UACC-257, 48 h
IGROV1 = assay: cells; conditions: Homo sapiens, IGROV-1, 48 h
OVCAR-3 = assay: cells; conditions: Homo sapiens, OVCAR-3, 48 h
OVCAR-5 = assay: cells; conditions: Homo sapiens, OVCAR-5, 48 h
SK-OV-3 = assay: cells; conditions: Homo sapiens, SK-OV-3, 48 h
786-0 = assay: cells; conditions: Homo sapiens, 786-0, 48 h
SN12C = assay: cells; conditions: Homo sapiens, 48 h
UO-31 = assay: cells; conditions: Homo sapiens, UO-31, 48 h
DU-145 = assay: cells; conditions: Homo sapiens, DU-145, 48 h
MDA-MB-435 = assay: cells; conditions: Homo sapiens, MDA-MB-435, 48 h
MDA-N = assay: cells; conditions: Homo sapiens, 48 h
[2] = system: Sixty human tumor cell lines; assay: cells; conditions: 48 h
[3] = system: Vascular Endothelial Growth Factor (VEGF) production by human melanoma cell line RPMI-7951; assay: VEGF ELISA, RPMI-7951; conditions: for VEGF ELISA / VEGF: RPMI-7951; for VEGF ELISA: DMSO control 3713
Method: (§1) RPMI-795 1, MDA-MB-231 and MDA-MB-435 cell lines were cultured in MEM-alpha medium (GIBCO-BRL, Long Island, N.Y.) containing 10% fetal bovine serum (RPMI-7951, MDA-MB-231) or 5% FBS (MDA-MB-435) at 37° C. and under 5% CO2/95% air. […] The cells were cultured in 48 well plates in all of the experiments described.
A VEGF enzyme-linked immunosorbent assay (ELISA) was utilized to determine the effect of the compounds of the present invention on VEGF production of a variety of human cancer cell lines. For the VEGF assay, cells were plated at a concentration of 80,000 cells/well and cultured overnight. Compounds or vehicle (DMSO 0.1%) were then added and the plates were incubated for 72 hours. Supernatant was then collected from each well and frozen in a −80° C. freezer until needed. Cell viability was determined by Neutral Red Assay. VEGF ELISA Kit (R & D, Minneapolis, Minn.) was used to determine the amount of VEGF in the culture supernatants. The ELISA was carried out according to the manufacturer's procedure.

RPMI-7951 human melanoma = assay: Neutral Red Assay, cell viability, RPMI-7951; conditions: Homo sapiens
Method: as §1
Neutral Red Assay was utilized to determine the effect of the compounds of the present invention on cell viability. Neutral Red was purchased from GIBCO-BRL (Long Island, N.Y.). Cells were plated at a concentration of 20,000 cells/well and cultured overnight. Compounds or vehicle (DMSO 0.1%) were then added and the plates were incubated for 72 hours. Supernatant from each well was either aspirated or collected and media containing Neutral Red (GIBCO-BRL, Long Island, N.Y.) at a concentration of 15 μl/ml was then added to each well. The plates were then incubated at 37° C. for 30 minutes. Next, the cells were washed with twice with PBS and alcoholic-HCl (0.5N—HCl/35% ethanol) was added to each well. The plates were then placed on a plate shaker until all residues were solubilized (pink color). The solubilized mixtures were then transferred to a 96 well plate and the absorbances were read on a micro-test plate reader at a wavelength of 570 nm.
Cell viability was determined by Neutral Red Assay.

[4] = read-out: Median Growth Inhibitory Concentration (GI50)
[5] = read-out: Median Lethal Concentration (LC50)
[6] = Homo sapiens, RPMI-7951, 72 h, read-out: VEGF
[7] = RPMI-7951, 72 h, read-out: Neutral Red Uptake, %
[8] = RPMI-7951, read-out: Cell Viability

With `O=C1C(=Cc2ccccc2O)CCCC1=Cc1ccccc1O` [EF4, 2,6Bis(2-hydroxybenzylidene)cyclohexanone] the “GI50 compared with CISPLATIN, in words” value [1] was “lower GI50 than the chemotherapeutic agent CISPLATIN for several cell types”, the “LC50 compared with CISPLATIN, in words” value [1] was “lower LC50 than the chemotherapeutic agent CISPLATIN for several cell types” and the GI50 (RPMI-8226) was 0.6 µM. The GI50 (SR; [4]) was 1.6 µM, the CC50 (SR; [5]) was > 100 µM and the GI50 (NCI-H226; [4]) was 19 µM. For the same compound, the CC50 (NCI-H226; [5]) was > 100 µM, the GI50 (NCI-H23; [4]) was 1.8 µM and the CC50 (NCI-H23; [5]) was 9.4 µM. It also gave a GI50 (HCC-2998; [4]) of 1.7 µM, a CC50 (HCC-2998; [5]) of 5.9 µM and a GI50 (KM12; [4]) of 1.6 µM. For the same compound, the CC50 (KM12; [5]) was 6.5 µM, the GI50 (SF-268; [4]) was 3 µM and the CC50 (SF-268; [5]) was 53.2 µM. It also gave a GI50 (SF-539; [4]) of 2 µM, a CC50 (SF-539; [5]) of 24.7 µM and a GI50 (SNB-19; [4]) of 3.2 µM. It also gave a CC50 (SNB-19; [5]) of 42.3 µM, a GI50 (SNB-75; [4]) of 2 µM and a CC50 (SNB-75; [5]) of 21.5 µM. The GI50 (MALME-3M; [4]) was 2.3 µM, the CC50 (MALME-3M; [5]) was 24.3 µM and the GI50 (SK-MEL-2; [4]) was 2.4 µM. It also gave a CC50 (SK-MEL-2; [5]) of 25.3 µM, a GI50 (SK-MEL-28; [4]) of 2.9 µM and a CC50 (SK-MEL-28; [5]) of 33.8 µM. For the same compound, the GI50 (UACC-257; [4]) was 2.9 µM, the CC50 (UACC-257; [5]) was 57.8 µM and the GI50 (IGROV1; [4]) was 2.9 µM. It also gave a CC50 (IGROV1; [5]) of 43.9 µM, a GI50 (OVCAR-3; [4]) of 3.7 µM and a CC50 (OVCAR-3; [5]) of 40.7 µM. It also gave a GI50 (OVCAR-5; [4]) of 2.6 µM, a CC50 (OVCAR-5; [5]) of 55.9 µM and a GI50 (SK-OV-3; [4]) of 6.7 µM. It also gave a CC50 (SK-OV-3; [5]) of 63.6 µM, a GI50 (786-0; [4]) of 2.3 µM and a CC50 (786-0; [5]) of 15.9 µM. For the same compound, the GI50 (SN12C; [4]) was 2.3 µM, the CC50 (SN12C; [5]) was 21.5 µM and the GI50 (UO-31; [4]) was 1.6 µM. The CC50 (UO-31; [5]) was 6.2 µM, the GI50 (DU-145; [4]) was 1.4 µM and the CC50 (DU-145; [5]) was 7 µM. For the same compound, the GI50 (MDA-MB-435; [4]) was 1.8 µM, the CC50 (MDA-MB-435; [5]) was 8 µM and the GI50 (MDA-N; [4]) was 1.6 µM. It also gave a CC50 (MDA-N; [5]) of 20.2 µM, a GI50 ([2]; read-out: Median Growth Inhibitory Concentration (GI50), Mean) of 2.4 µM and a CC50 ([2]; read-out: Median Lethal Concentration (LC50), Mean) of 33.9 µM. For the same compound, the activity at 5 µM [3, 6] was 70%, the activity at 20 µM [3, 6] was 0% and the “VEGF ELISA” value ([3]; 5 μM) was 2159 pg/ml/well. For the same compound, the VEGF ([3]; 5 μM, DMSO control 4197 (EF-25: 1045)) was 2920 pg/mL, the “VEGF ELISA” value ([3]; 20 μM) was 199 pg/ml/well and the VEGF ([3]; 20 μM, DMSO control 4197) was 0 pg/mL. For the same compound, the viability at 5 µM (RPMI-7951 human melanoma; [7]) was 98%, the viability at 20 µM (RPMI-7951 human melanoma; [7]) was 4% and the viability at 5 µM (RPMI-7951 human melanoma; [8]) was 102%. The viability at 20 µM (RPMI-7951 human melanoma; [8]) was 38%.
